ChEMBL document CHEMBL1154443, “In vivo studies of 5-arylethenylbenzofuroxans in acute murine models of Chagas' disease” (Eur J Med Chem, 2008)
Active and inactive are the calls of the source. No cut-off for these calls is given here.

Legend:
[1] = system: Trypanosoma cruzi; assay: Antitrypanosomal activity against Trypanosoma cruzi Colombiana infected Swiss mouse assessed as prevention of heart inflammatory infiltrates at 120 mg/kg/day, po; assay type: functional, organism-based
[2] = system: Trypanosoma cruzi; assay: Antitrypanosomal activity against Trypanosoma cruzi Colombiana infected Swiss mouse assessed as reduction in circulating trypomastigotes antibody level at 120 mg/kg/day, po after 44 days postinfection; assay type: functional, organism-based
[3] = system: Trypanosoma cruzi; assay: Antitrypanosomal activity against Trypanosoma cruzi Tulahuen 2 infected Swiss mouse assessed as prevention of muscle inflammatory infiltrates at 120 mg/kg/day, po; assay type: functional, organism-based; conditions: Muscle tissue
[4] = system: Trypanosoma cruzi; assay: Antitrypanosomal activity against Trypanosoma cruzi Tulahuen 2 infected Swiss mouse assessed as reduction in circulating trypomastigotes antibody level at 120 mg/kg/day, po after 90 days postinfection; assay type: functional, organism-based
[5] = system: Trypanosoma cruzi; assay: Antitrypanosomal activity against Trypanosoma cruzi Tulahuen 2 infected Swiss mouse assessed as reduction in circulating trypomastigotes antibody level at 120 mg/kg/day, po after 60 days postinfection; assay type: functional, organism-based
[6] = Toxicity against Trypanosoma cruzi Colombiana infected Swiss mouse assessed as mouse survival at 120 mg/kg/day, po after 25 days; assay type: organism-based; design: route oral; conditions: in vivo, read-out: Activity
[7] = system: Trypanosoma cruzi; assay: Antitrypanosomal activity against Trypanosoma cruzi Tulahuen 2 infected Swiss mouse assessed as prevention of heart inflammatory infiltrates at 120 mg/kg/day, po; assay type: functional, organism-based
[8] = system: Trypanosoma cruzi; assay: Antitrypanosomal activity against Trypanosoma cruzi Tulahuen 2 infected Swiss mouse assessed as prevention of liver congestion at 120 mg/kg/day, po; assay type: functional, organism-based
[9] = system: Trypanosoma cruzi; assay: Antitrypanosomal activity against Trypanosoma cruzi Colombiana infected Swiss mouse assessed as prevention of liver congestion at 120 mg/kg/day, po; assay type: functional, organism-based
[10] = system: Trypanosoma cruzi; assay: Antitrypanosomal activity against Trypanosoma cruzi Colombiana infected Swiss mouse assessed as prevention of skeletal muscle inflammatory infiltrates at 120 mg/kg/day, po; assay type: functional, organism-based; conditions: Muscle tissue
[11] = Toxicity against Trypanosoma cruzi Tulahuen 2 infected Swiss mouse assessed as mouse survival at 120 mg/kg/day, po after 25 days; assay type: organism-based; design: route oral; conditions: in vivo, read-out: Activity
[12] = system: Trypanosoma cruzi; assay: Antitrypanosomal activity against Trypanosoma cruzi Tulahuen 2 infected Swiss mouse assessed as reduction in circulating trypomastigotes antibody level at 200 mg/kg/day, po after 60 days postinfection; assay type: functional, organism-based
[13] = system: Trypanosoma cruzi; assay: Antitrypanosomal activity against Trypanosoma cruzi Tulahuen 2 infected Swiss mouse assessed as prevention of liver congestion at 200 mg/kg/day, po; assay type: functional, organism-based
[14] = system: Trypanosoma cruzi; assay: Antitrypanosomal activity against Trypanosoma cruzi Tulahuen 2 infected Swiss mouse assessed as reduction in circulating trypomastigotes antibody level at 200 mg/kg/day, po after 90 days postinfection; assay type: functional, organism-based
[15] = system: Trypanosoma cruzi; assay: Antitrypanosomal activity against Trypanosoma cruzi Tulahuen 2 infected Swiss mouse assessed as prevention of muscle inflammatory infiltrates at 200 mg/kg/day, po; assay type: functional, organism-based; conditions: Muscle tissue
[16] = system: Trypanosoma cruzi; assay: Antitrypanosomal activity against Trypanosoma cruzi Tulahuen 2 infected Swiss mouse assessed as prevention of heart inflammatory infiltrates at 200 mg/kg/day, po; assay type: functional, organism-based
[17] = system: Trypanosoma cruzi; assay: Antitrypanosomal activity against Trypanosoma cruzi Argentinian isolate infected Swiss mouse assessed as prevention of heart inflammatory infiltrates at 60 mg/kg/day, po; assay type: functional, organism-based
[18] = system: Trypanosoma cruzi; assay: Antitrypanosomal activity against Trypanosoma cruzi Argentinian isolate infected Swiss mouse assessed as prevention of liver congestion at 60 mg/kg/day, po; assay type: functional, organism-based
[19] = system: Mus musculus; assay: Toxicity against Trypanosoma cruzi infected CD1 mouse assessed as effect on kidney histology at 450 mg/kg, po; assay type: organism-based; design: dose 450 mg/kg, route oral; conditions: in vivo
[20] = system: Mus musculus; assay: Toxicity against Trypanosoma cruzi infected CD1 mouse assessed as effect on heart histology at 300 mg/kg, ip; assay type: organism-based; design: dose 300 mg/kg, route intraperitoneal; conditions: in vivo
[21] = system: Mus musculus; assay: Toxicity against Trypanosoma cruzi infected CD1 mouse assessed as effect on liver histology at 300 mg/kg, ip; assay type: organism-based; design: dose 300 mg/kg, route intraperitoneal; conditions: in vivo
[22] = system: Mus musculus; assay: Toxicity against Trypanosoma cruzi infected CD1 mouse assessed as effect on heart histology at 450 mg/kg, po; assay type: organism-based; design: dose 450 mg/kg, route oral; conditions: in vivo
[23] = system: Trypanosoma cruzi; assay: Antitrypanosomal activity against Trypanosoma cruzi Argentinian isolate infected Swiss mouse assessed as prevention of skeletal muscle inflammatory infiltrates at 60 mg/kg/day, po; assay type: functional, organism-based; conditions: Muscle tissue
[24] = system: Trypanosoma cruzi; assay: Antitrypanosomal activity against Trypanosoma cruzi Argentinian isolate infected Swiss mouse assessed as inhibition of skeletal muscle amastigote nests at 60 mg/kg/day, po; assay type: functional, organism-based; conditions: Muscle tissue
[25] = system: Mus musculus; assay: Toxicity against Trypanosoma cruzi infected CD1 mouse assessed as effect on liver histology at 450 mg/kg, po; assay type: organism-based; design: dose 450 mg/kg, route oral; conditions: in vivo
[26] = system: Mus musculus; assay: Toxicity against Trypanosoma cruzi infected CD1 mouse assessed as effect on kidney histology at 300 mg/kg, ip; assay type: organism-based; design: dose 300 mg/kg, route intraperitoneal; conditions: in vivo
[27] = system: Trypanosoma cruzi; assay: Antitrypanosomal activity against Trypanosoma cruzi Argentinian isolate infected Swiss mouse assessed as inhibition of heart amastigote nests at 60 mg/kg/day, po; assay type: functional, organism-based
[28] = system: Trypanosoma cruzi; assay: Antitrypanosomal activity against Trypanosoma cruzi Colombiana infected Swiss mouse assessed as reduction in circulating trypomastigotes antibody level at 120 mg/kg/day, po after 90 days postinfection; assay type: functional, organism-based
[29] = system: Trypanosoma cruzi; assay: Antitrypanosomal activity against Trypanosoma cruzi Tulahuen 2 infected Swiss mouse assessed as suppression of parasitemia at 60 mg/kg/day, po; assay type: functional, organism-based
[30] = system: Trypanosoma cruzi; assay: Antitrypanosomal activity against Trypanosoma cruzi Uruguayan isolate infected CD1 mouse assessed as suppression of parasitemia at 60 mg/kg/day, po after 17 day postinfection; assay type: functional, organism-based
[31] = system: Trypanosoma cruzi; assay: Antitrypanosomal activity against Trypanosoma cruzi Tulahuen 2 infected Swiss mouse assessed as suppression of parasitemia at 120 mg/kg/day, po; assay type: functional, organism-based
[32] = system: Trypanosoma cruzi; assay: Antitrypanosomal activity against Trypanosoma cruzi Argentinian isolate infected Swiss mouse assessed as suppression of parasitemia at 60 mg/kg/day, po; assay type: functional, organism-based

[O-][n+]1onc2ccc(/C=C/c3ccc4c(c3)OCO4)cc21
Activity [1]: Active | Activity [2]: inactive | Activity [3]: Active | Activity [4]: Active | Activity [5]: Active | survival at 600 h [6]: 100% | Activity [7]: Active | Activity [8]: Active | Activity [9]: Active | Activity [10]: Active | survival at 600 h [11]: 100%

O=C(Cn1ccnc1[N+](=O)[O-])NCc1ccccc1 [BENZNIDAZOLE]
Activity [1]: Active | Activity [12]: Active | Activity [2]: Active | Activity [13]: Active | Activity [14]: Active | Activity [15]: Active | survival at 600 h [6]: 100% | Activity [9]: Active | Activity [16]: Active | Activity [10]: Active

CC1CS(=O)(=O)CCN1/N=C/c1ccc([N+](=O)[O-])o1 (configuration not stated) [NIFURTIMOX]
Activity [17]: Active | Activity [18]: Active | Activity [19]: Toxic | Activity [20]: Non-toxic | Activity [21]: Toxic | Activity [22]: Non-toxic | Activity [23]: Active | Activity [24]: Active | Activity [25]: Toxic | Activity [26]: Non-toxic | Activity [27]: Active

[O-][n+]1onc2ccc(/C=C\c3ccc4c(c3)OCO4)cc21
Activity [1]: Active | Activity [2]: inactive | Activity [3]: Active | survival at 600 h [6]: 100% | Activity [7]: Active | Activity [8]: Active | Activity [28]: Active | Activity [9]: Active | Activity [10]: Active | survival at 600 h [11]: 100%

[O-][n+]1onc2ccc(/C=C/c3ccccc3)cc21
Activity [29]: Active | Activity [30]: Active | Activity [17]: Active | Activity [18]: Active | Activity [1]: Active | Activity [19]: Non-toxic | Activity [31]: Active | Activity [20]: Non-toxic | Activity [21]: Non-toxic | Activity [32]: Active | Activity [2]: inactive | Activity [3]: Active | Activity [22]: Non-toxic | Activity [23]: Active | survival at 600 h [6]: 100% | Activity [24]: Active | Activity [25]: Non-toxic | Activity [26]: Non-toxic | Activity [7]: Active | Activity [8]: Active | Activity [28]: Active | Activity [9]: Active | Activity [10]: Active | survival at 600 h [11]: 100% | Activity [27]: Active
